Data reported in ChEMBL document CHEMBL5370556, “Optimization, and biological evaluation of 3-O-β-chacotriosyl betulinic acid amide derivatives as novel small-molecule Omicron” (Eur J Med Chem, 2023).

Assays:
[1] = tested on: SARS-CoV-2; assay: Antiviral activity against luciferase-expressing pseudovirus encoding SARS-CoV-2 Omicron expressing S protein infected in human 293T/ACE2 cells assessed as reduction of viral growth measured after 48 hrs by luciferase assay; assay type: functional, organism-based; conditions: Severe acute respiratory syndrome coronavirus 2, 293T/ACE2, 48 h
[2] = Cytotoxicity against human 293T/ACE2 cells assessed as reduction in cell growth measured after 48 hrs by MTT assay; assay type: functional
[3] = Selectivity index, ratio of CC50 for human 293T/ACE2 cells to EC50 for SARS-CoV-2 Omicron; assay type: toxicity; conditions: read-out: Ratio CC50/EC50

| Structure (SMILES) | EC50 [1] [µM] | CC50 [2] [µM] | selectivity ratio [3] |
| --- | --- | --- | --- |
| C=C(C)[C@@H]1CC[C@]2(C(=O)Nc3ccc(Cl)cc3)CC[C@]3(C)[C@H](CC[C@@H]4[C@@]5(C)CC[C@H](O[C@@H]6O[C@H](CO)[C@@H](O[C@@H]7O[C@@H](C)[C@H](O)[C@@H](O)[C@H]7O)[C@H](O)[C@H]6O[C@@H]6O[C@@H](C)[C@H](O)[C@@H](O)[C@H]6O)C(C)(C)[C@@H]5CC[C@]43C)[C@@H]12 | 6.5 | 87.5 | 13.5 |
| C=C(C)[C@@H]1CC[C@]2(C(=O)NCc3ccccc3OC)CC[C@]3(C)[C@H](CC[C@@H]4[C@@]5(C)CC[C@H](O[C@@H]6O[C@H](CO)[C@@H](O[C@@H]7O[C@@H](C)[C@H](O)[C@@H](O)[C@H]7O)[C@H](O)[C@H]6O[C@@H]6O[C@@H](C)[C@H](O)[C@@H](O)[C@H]6O)C(C)(C)[C@@H]5CC[C@]43C)[C@@H]12 | > 20 |  |  |
| C=C(C)[C@@H]1CC[C@]2(C(=O)Nc3cccc(Cl)c3)CC[C@]3(C)[C@H](CC[C@@H]4[C@@]5(C)CC[C@H](O[C@@H]6O[C@H](CO)[C@@H](O[C@@H]7O[C@@H](C)[C@H](O)[C@@H](O)[C@H]7O)[C@H](O)[C@H]6O[C@@H]6O[C@@H](C)[C@H](O)[C@@H](O)[C@H]6O)C(C)(C)[C@@H]5CC[C@]43C)[C@@H]12 | 6.63 | 56.4 | 8.51 |
| C=C(C)[C@@H]1CC[C@]2(C(=O)NCc3cccc(Cl)c3)CC[C@]3(C)[C@H](CC[C@@H]4[C@@]5(C)CC[C@H](O[C@@H]6O[C@H](CO)[C@@H](O[C@@H]7O[C@@H](C)[C@H](O)[C@@H](O)[C@H]7O)[C@H](O)[C@H]6O[C@@H]6O[C@@H](C)[C@H](O)[C@@H](O)[C@H]6O)C(C)(C)[C@@H]5CC[C@]43C)[C@@H]12 | > 20 |  |  |
| C=C(C)[C@@H]1CC[C@]2(C(=O)NCc3cccc(OC)c3)CC[C@]3(C)[C@H](CC[C@@H]4[C@@]5(C)CC[C@H](O[C@@H]6O[C@H](CO)[C@@H](O[C@@H]7O[C@@H](C)[C@H](O)[C@@H](O)[C@H]7O)[C@H](O)[C@H]6O[C@@H]6O[C@@H](C)[C@H](O)[C@@H](O)[C@H]6O)C(C)(C)[C@@H]5CC[C@]43C)[C@@H]12 | > 20 |  |  |
| C=C(C)[C@@H]1CC[C@]2(C(=O)Nc3ccccc3OC)CC[C@]3(C)[C@H](CC[C@@H]4[C@@]5(C)CC[C@H](O[C@@H]6O[C@H](CO)[C@@H](O[C@@H]7O[C@@H](C)[C@H](O)[C@@H](O)[C@H]7O)[C@H](O)[C@H]6O[C@@H]6O[C@@H](C)[C@H](O)[C@@H](O)[C@H]6O)C(C)(C)[C@@H]5CC[C@]43C)[C@@H]12 | 6.11 | 83.2 | 13.6 |
| C=C(C)[C@@H]1CC[C@]2(C(=O)NNCc3ccccc3)CC[C@]3(C)[C@H](CC[C@@H]4[C@@]5(C)CC[C@H](O[C@@H]6O[C@H](CO)[C@@H](O[C@@H]7O[C@@H](C)[C@H](O)[C@@H](O)[C@H]7O)[C@H](O)[C@H]6O[C@@H]6O[C@@H](C)[C@H](O)[C@@H](O)[C@H]6O)C(C)(C)[C@@H]5CC[C@]43C)[C@@H]12 | > 20 |  |  |
| C=C(C)[C@@H]1CC[C@]2(C(=O)Nc3ccc(-c4ccccc4)cc3)CC[C@]3(C)[C@H](CC[C@@H]4[C@@]5(C)CC[C@H](O[C@@H]6O[C@H](CO)[C@@H](O[C@@H]7O[C@@H](C)[C@H](O)[C@@H](O)[C@H]7O)[C@H](O)[C@H]6O[C@@H]6O[C@@H](C)[C@H](O)[C@@H](O)[C@H]6O)C(C)(C)[C@@H]5CC[C@]43C)[C@@H]12 | 8.46 | 100 | 11.9 |
| C=C(C)[C@@H]1CC[C@]2(C(=O)NCc3ccc(-c4ccccc4)cc3)CC[C@]3(C)[C@H](CC[C@@H]4[C@@]5(C)CC[C@H](O[C@@H]6O[C@H](CO)[C@@H](O[C@@H]7O[C@@H](C)[C@H](O)[C@@H](O)[C@H]7O)[C@H](O)[C@H]6O[C@@H]6O[C@@H](C)[C@H](O)[C@@H](O)[C@H]6O)C(C)(C)[C@@H]5CC[C@]43C)[C@@H]12 | > 20 |  |  |
| C=C(C)[C@@H]1CC[C@]2(C(=O)NCCc3ccccc3)CC[C@]3(C)[C@H](CC[C@@H]4[C@@]5(C)CC[C@H](O[C@@H]6O[C@H](CO)[C@@H](O[C@@H]7O[C@@H](C)[C@H](O)[C@@H](O)[C@H]7O)[C@H](O)[C@H]6O[C@@H]6O[C@@H](C)[C@H](O)[C@@H](O)[C@H]6O)C(C)(C)[C@@H]5CC[C@]43C)[C@@H]12 | 8.47 | 226 | 26.7 |
| C=C(C)[C@@H]1CC[C@]2(C(=O)NCc3ccccc3)CC[C@]3(C)[C@H](CC[C@@H]4[C@@]5(C)CC[C@H](O[C@@H]6O[C@H](CO)[C@@H](O[C@@H]7O[C@@H](C)[C@H](O)[C@@H](O)[C@H]7O)[C@H](O)[C@H]6O[C@@H]6O[C@@H](C)[C@H](O)[C@@H](O)[C@H]6O)C(C)(C)[C@@H]5CC[C@]43C)[C@@H]12 | 5.52 | 248 | 44.9 |
| C=C(C)[C@@H]1CC[C@]2(C(=O)NNc3ccccc3)CC[C@]3(C)[C@H](CC[C@@H]4[C@@]5(C)CC[C@H](O[C@@H]6O[C@H](CO)[C@@H](O[C@@H]7O[C@@H](C)[C@H](O)[C@@H](O)[C@H]7O)[C@H](O)[C@H]6O[C@@H]6O[C@@H](C)[C@H](O)[C@@H](O)[C@H]6O)C(C)(C)[C@@H]5CC[C@]43C)[C@@H]12 | > 20 |  |  |
| C=C(C)[C@@H]1CC[C@]2(C(=O)Nc3ccc(OC)cc3)CC[C@]3(C)[C@H](CC[C@@H]4[C@@]5(C)CC[C@H](O[C@@H]6O[C@H](CO)[C@@H](O[C@@H]7O[C@@H](C)[C@H](O)[C@@H](O)[C@H]7O)[C@H](O)[C@H]6O[C@@H]6O[C@@H](C)[C@H](O)[C@@H](O)[C@H]6O)C(C)(C)[C@@H]5CC[C@]43C)[C@@H]12 | 9.44 | 178 | 18.9 |
| C=C(C)[C@@H]1CC[C@]2(C(=O)NOc3ccccc3)CC[C@]3(C)[C@H](CC[C@@H]4[C@@]5(C)CC[C@H](O[C@@H]6O[C@H](CO)[C@@H](O[C@@H]7O[C@@H](C)[C@H](O)[C@@H](O)[C@H]7O)[C@H](O)[C@H]6O[C@@H]6O[C@@H](C)[C@H](O)[C@@H](O)[C@H]6O)C(C)(C)[C@@H]5CC[C@]43C)[C@@H]12 | 9.88 | 116 | 11.7 |
| C=C(C)[C@@H]1CC[C@]2(C(=O)Nc3ccc4sccc4c3)CC[C@]3(C)[C@H](CC[C@@H]4[C@@]5(C)CC[C@H](O[C@@H]6O[C@H](CO)[C@@H](O[C@@H]7O[C@@H](C)[C@H](O)[C@@H](O)[C@H]7O)[C@H](O)[C@H]6O[C@@H]6O[C@@H](C)[C@H](O)[C@@H](O)[C@H]6O)C(C)(C)[C@@H]5CC[C@]43C)[C@@H]12 | > 20 |  |  |
| C=C(C)[C@@H]1CC[C@]2(C(=O)NCc3ccco3)CC[C@]3(C)[C@H](CC[C@@H]4[C@@]5(C)CC[C@H](O[C@@H]6O[C@H](CO)[C@@H](O[C@@H]7O[C@@H](C)[C@H](O)[C@@H](O)[C@H]7O)[C@H](O)[C@H]6O[C@@H]6O[C@@H](C)[C@H](O)[C@@H](O)[C@H]6O)C(C)(C)[C@@H]5CC[C@]43C)[C@@H]12 | > 20 |  |  |
| C=C(C)[C@@H]1CC[C@]2(C(=O)Nc3ccc4c(cnn4C)c3)CC[C@]3(C)[C@H](CC[C@@H]4[C@@]5(C)CC[C@H](O[C@@H]6O[C@H](CO)[C@@H](O[C@@H]7O[C@@H](C)[C@H](O)[C@@H](O)[C@H]7O)[C@H](O)[C@H]6O[C@@H]6O[C@@H](C)[C@H](O)[C@@H](O)[C@H]6O)C(C)(C)[C@@H]5CC[C@]43C)[C@@H]12 | > 20 |  |  |
| C=C(C)[C@@H]1CC[C@]2(C(=O)Nc3ccc4ncccc4c3)CC[C@]3(C)[C@H](CC[C@@H]4[C@@]5(C)CC[C@H](O[C@@H]6O[C@H](CO)[C@@H](O[C@@H]7O[C@@H](C)[C@H](O)[C@@H](O)[C@H]7O)[C@H](O)[C@H]6O[C@@H]6O[C@@H](C)[C@H](O)[C@@H](O)[C@H]6O)C(C)(C)[C@@H]5CC[C@]43C)[C@@H]12 | 8.43 | 69.6 | 8.25 |
| C=C(C)[C@@H]1CC[C@]2(C(=O)NCC3CCCCC3)CC[C@]3(C)[C@H](CC[C@@H]4[C@@]5(C)CC[C@H](O[C@@H]6O[C@H](CO)[C@@H](O[C@@H]7O[C@@H](C)[C@H](O)[C@@H](O)[C@H]7O)[C@H](O)[C@H]6O[C@@H]6O[C@@H](C)[C@H](O)[C@@H](O)[C@H]6O)C(C)(C)[C@@H]5CC[C@]43C)[C@@H]12 | > 20 |  |  |
| C=C(C)[C@@H]1CC[C@]2(C(=O)NCc3ccc(Cl)cc3)CC[C@]3(C)[C@H](CC[C@@H]4[C@@]5(C)CC[C@H](O[C@@H]6O[C@H](CO)[C@@H](O[C@@H]7O[C@@H](C)[C@H](O)[C@@H](O)[C@H]7O)[C@H](O)[C@H]6O[C@@H]6O[C@@H](C)[C@H](O)[C@@H](O)[C@H]6O)C(C)(C)[C@@H]5CC[C@]43C)[C@@H]12 | > 20 |  |  |
| C=C(C)[C@@H]1CC[C@]2(C(=O)NCc3ccccc3Cl)CC[C@]3(C)[C@H](CC[C@@H]4[C@@]5(C)CC[C@H](O[C@@H]6O[C@H](CO)[C@@H](O[C@@H]7O[C@@H](C)[C@H](O)[C@@H](O)[C@H]7O)[C@H](O)[C@H]6O[C@@H]6O[C@@H](C)[C@H](O)[C@@H](O)[C@H]6O)C(C)(C)[C@@H]5CC[C@]43C)[C@@H]12 | > 20 |  |  |
| C=C(C)[C@@H]1CC[C@]2(C(=O)NCc3ccc(OC)cc3)CC[C@]3(C)[C@H](CC[C@@H]4[C@@]5(C)CC[C@H](O[C@@H]6O[C@H](CO)[C@@H](O[C@@H]7O[C@@H](C)[C@H](O)[C@@H](O)[C@H]7O)[C@H](O)[C@H]6O[C@@H]6O[C@@H](C)[C@H](O)[C@@H](O)[C@H]6O)C(C)(C)[C@@H]5CC[C@]43C)[C@@H]12 | > 20 |  |  |
